Results: patent US5834453A, “Methods for the manufacture and use of antimicrobial sterol conjugates” (Lehigh University, priority 1997, dated 1998)
Converted amounts (≈) assume the structure as drawn. “Also recorded” adds a separate entry of the source.

Assays:
[1] = system: gram negative rods; test: Enhancement of the antimicrobial activity of rifampin; type: cell-based; conditions: subinhibitory concentrations of SM-7
[2] = system: Staphylococcus aureus; test: Bactericidal action; type: cell-based
[3] = system: C. albicans (90028); test: MIC, micro-broth dilution; type: cell-based; conditions: Candida albicans, 35° C., 24 hours, read-out: ANTIMICROBIAL ACTIVITY (MIC)
Summary of the method: (§1)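 Micro-broth dilution with 10^6/ml inocula in 0.5× trypticase soy broth, 24 h at 35° C. MIC taken as concentration giving complete growth inhibition; also tested at varied pH, with CaCl₂ or MgCl₂, or with immobilized horse serum.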

[4] = system: S. marcescens (13880); test: MIC, micro-broth dilution; type: cell-based
Summary of the method: as §1

[5] = system: P. aeruginosa (2853); test: MIC, micro-broth dilution; type: cell-based; conditions: Pseudomonas aeruginosa, 24 h, read-out: ANTIMICROBIAL ACTIVITY (MIC)
Summary of the method: as §1

[6] = system: E. faecium (T6480-9); test: MIC, micro-broth dilution; type: cell-based; conditions: Enterococcus faecium, 35° C., 24 hours, read-out: ANTIMICROBIAL ACTIVITY (MIC)
Summary of the method: as §1

[7] = system: A. fumigatus (H29709); test: MIC, micro-broth dilution; type: cell-based; conditions: Aspergillus fumigatus, 35° C., 24 hours, read-out: ANTIMICROBIAL ACTIVITY (MIC)
Summary of the method: as §1

[8] = system: C. neoformans (M68979); test: MIC, micro-broth dilution; type: cell-based; conditions: Cryptococcus neoformans, 24 h, read-out: ANTIMICROBIAL ACTIVITY (MIC)
Summary of the method: as §1

[9] = system: S. pyrogenes (19615); test: MIC, micro-broth dilution; type: cell-based; conditions: 24 h, read-out: ANTIMICROBIAL ACTIVITY (MIC)
Summary of the method: as §1

[10] = system: S. epidermidis (12228); test: MIC, micro-broth dilution; type: cell-based; conditions: Staphylococcus epidermidis, 35° C., 24 hours, read-out: ANTIMICROBIAL ACTIVITY (MIC)
Summary of the method: as §1

[11] = system: S. aureus (25923); test: MIC, micro-broth dilution; type: cell-based; conditions: Staphylococcus aureus, 35° C., 24 hours, read-out: ANTIMICROBIAL ACTIVITY (MIC)
Summary of the method: as §1

[12] = system: K. pneumoniae (13883); test: MIC, micro-broth dilution; type: cell-based; conditions: Klebsiella pneumoniae, 24 h, read-out: ANTIMICROBIAL ACTIVITY (MIC)
Summary of the method: as §1

[13] = system: E. faecalis (29212); test: MIC, micro-broth dilution; type: cell-based; conditions: Enterococcus faecalis, 35° C., 24 hours, read-out: ANTIMICROBIAL ACTIVITY (MIC)
Summary of the method: as §1

[14] = system: E. cloacae (13047); test: MIC, micro-broth dilution; type: cell-based; conditions: Enterobacter cloacae, 35° C., 24 hours, read-out: ANTIMICROBIAL ACTIVITY (MIC)
Summary of the method: as §1

[15] = system: A. fumigatus (H1120); test: MIC, micro-broth dilution; type: cell-based; conditions: Aspergillus fumigatus, 35° C., 24 hours, read-out: ANTIMICROBIAL ACTIVITY (MIC)
Summary of the method: as §1

[16] = system: E. coli (25922); test: MIC, micro-broth dilution; type: cell-based; conditions: Escherichia coli, 35° C., 24 hours, read-out: ANTIMICROBIAL ACTIVITY (MIC)
Summary of the method: as §1

[17] = system: S. aureus (H20809); test: MIC, micro-broth dilution; type: cell-based; conditions: Staphylococcus aureus, 24 h, read-out: ANTIMICROBIAL ACTIVITY (MIC)
Summary of the method: as §1

[18] = system: C. neoformans (90012); test: MIC, micro-broth dilution; type: cell-based; conditions: Cryptococcus neoformans, 24 h, read-out: ANTIMICROBIAL ACTIVITY (MIC)
Summary of the method: as §1

[19] = system: S. aureus (29213); test: MIC, micro-broth dilution; type: cell-based; conditions: Staphylococcus aureus, 24 h, read-out: ANTIMICROBIAL ACTIVITY (MIC)
Summary of the method: as §1

[20] = system: P. vulgaris (13315); test: MIC, micro-broth dilution; type: cell-based; conditions: Proteus vulgaris, 35° C., 24 hours, read-out: ANTIMICROBIAL ACTIVITY (MIC)
Summary of the method: as §1

[21] = system: S. pneumoniae (6305); test: MIC, micro-broth dilution; type: cell-based; conditions: Streptococcus pneumoniae, 35° C., 24 hours, read-out: ANTIMICROBIAL ACTIVITY (MIC)
Summary of the method: as §1

[22] = system: S. agalactiae (13813); test: MIC, micro-broth dilution; type: cell-based; conditions: Streptococcus agalactiae, 35° C., 24 hours, read-out: ANTIMICROBIAL ACTIVITY (MIC)
Summary of the method: as §1

[23] = system: P. aeruginosa (10145); test: MIC, micro-broth dilution; type: cell-based; conditions: Pseudomonas aeruginosa, 35° C., 24 hours, read-out: ANTIMICROBIAL ACTIVITY (MIC)
Summary of the method: as §1

[24] = system: gram negative rods; test: Antimicrobial activity (MIC), gram negative rods; type: cell-based; conditions: of all the mimics tested
Experimental: (§2) The antimicrobial activity of the compounds according to the present invention were compared with the results obtained for squalamine as reported in Proc. Nat. Acad. Sci. USA 90:1354 (1993), supra, the disclosure of which is incorporated in toto herein. The data reported in the following table is the minimum inhibitory concentration (MIC) required for complete inhibition of microbial growth. The MIC was determined utilizing known micro-broth dilution methods in which inocula of 10^6 /ml of the test organism were incubated in 0.5× trypticase soy broth at 35° C. for 24 hours. MIC's were also tested under various pH conditions, with calcium chloride or magnesium chloride, or with immobilized horse serum.

[25] = system: sheep red blood cells; test: Hemolytic activity, minimal hemolytic concentration (MHC); type: cell-based
Experimental: (§3) Hemolytic activity of the squalamine mimics according to the present invention were also studied by incubating sheep red blood cells for 24 hours at 37° C. in saline (final concentration of 0.5%) with or without respective concentrations of the squalamine mimics. The minimal hemolytic concentration (MHC) was determined as the lowest concentration of a mimic that raised visible hemolysis.

[26] = as above; type: cell-based, sheep; conditions: sheep red blood cells, 24 hours at 37° C. in saline
Experimental: as §3

[27] = system: Escherichia coli; test: Bactericidal action; type: cell-based
[28] = system: Pseudomonas aeruginosa; test: Bactericidal action; type: cell-based
[29] = system: various groups of microorganisms; test: Antimicrobial activity (MIC), all microorganisms tested; type: cell-based
Experimental: as §2
The numbers in parentheses contained in the table correspond to accession numbers with the American Type Culture Collection (reference strains were either obtained from the American Type Culture Collection or from the Microbiology Laboratory at Memorial Sloan-Kettering Cancer Center; Bacterial strains were maintained on Columbia 5% sheep blood agar plates, and fungi were maintained on Sabouraud Dextrose agar plates).

[30] = system: bacteria; test: Loss of antimicrobial/bactericidal action in presence of albumin; type: cell-based; conditions: 12.5 μg/ml of SM-7, 40 mg/ml of bovine serum albumin
[31] = system: P. aeruginosa (2853); conditions: P. aeruginosa ATCC 27853; as reported in the literature; cited from earlier work
[32] = system: S. aureus (29213); conditions: S. aureus ATCC 29213; as reported in the literature; cited from earlier work
[33] = system: P. vulgaris; conditions: P. vulgaris ATCC 13883; as reported in the literature; cited from earlier work
[34] = system: various groups of microorganisms; conditions: broad spectrum of microorganisms; cited from earlier work
[35] = system: S. marcescens (13880); conditions: known; cited from earlier work

## C[C@H](CCC(=O)NCCCNCCCCNCCCN)[C@H]1CC[C@H]2[C@@H]3CC[C@@H]4C[C@H](O)CC[C@]4(C)[C@H]3C[C@H](O)[C@]12C [SM-7, deoxycholic acid-spermine conjugate]
[1]
  enhancement of antimicrobial activity of rifampin: markedly enhanced the antimicrobial activity of rifampin against gram negative rods
[2]
  antibacterial action (bactericidal): bactericidal
[3]
  MIC: 3.13 mg/L (≈ 5.43 µM)
[4]; Serratia marcescens, 24 h, read-out: ANTIMICROBIAL ACTIVITY (MIC)
  MIC: 25 mg/L (≈ 43.3 µM)
[4]; in words
  activity against S. marcescens: found even against S. marcescens; also recorded: effective against S. marcescens
[5]
  MIC: 3.13 mg/L (≈ 5.43 µM)
[6]
  MIC: 6.25 mg/L (≈ 10.8 µM)
[7]
  MIC: 12.5 mg/L (≈ 21.7 µM)
[8]
  MIC: 1.56 mg/L (≈ 2.7 µM)
[9]
  MIC: 0.78 mg/L (≈ 1.35 µM)
[10]
  MIC: 0.78 mg/L (≈ 1.35 µM)
[11]
  MIC: 1.56 mg/L (≈ 2.7 µM)
[12]
  MIC: 3.13 mg/L (≈ 5.43 µM)
[13]
  MIC: 3.13 mg/L (≈ 5.43 µM)
[14]
  MIC: 12.5 mg/L (≈ 21.7 µM)
[15]
  MIC: 12.5 mg/L (≈ 21.7 µM)
[16]
  MIC: 3.13 mg/L (≈ 5.43 µM)
[17]
  MIC: 1.56 mg/L (≈ 2.7 µM)
[18]
  MIC: 0.78 mg/L (≈ 1.35 µM)
[19]
  MIC: 1.56 mg/L (≈ 2.7 µM)
[20]
  MIC: 3.13 mg/L (≈ 5.43 µM)
[21]
  MIC: 3.13 mg/L (≈ 5.43 µM)
[22]
  MIC: 3.13 mg/L (≈ 5.43 µM)
[23]
  MIC: 6.25 mg/L (≈ 10.8 µM)
[24]
  potency ranking against gram negative rods: most potent activity against gram negative rods of all the mimics tested
[25]
  hemolytic activity (in words): unwanted hemolytic activity
[26]
  minimal hemolytic concentration (MHC) at 24 h: 12.5 µg/mL
[27]
  antibacterial action (bactericidal): bactericidal
[28]
  antibacterial action (bactericidal): bactericidal
[29]
  antimicrobial activity (in words): highly active; also recorded: more activity than SM-8, SM-14, and SM-22
[30]
  inhibition of (bactericidal) activity by albumin: completely inhibited

## CC(C)C(CC[C@@H](C)[C@H]1CC[C@H]2[C@@H]3[C@H](O)C[C@H]4C[C@@H](NCCCNCCCCN)CC[C@]4(C)[C@H]3CC[C@]12C)OS(=O)(=O)O (stereo partly drawn) [squalamine, 3β-N-1-{N-[3-(4-aminobutyl)]-1,3-diaminopropane}-7α,24.zeta.-dihydroxy-5α-cholestane 24-sulfate]
[31]
  MIC of squalamine: 4 to 8 mg/L
[32]
  MIC of squalamine: 1 to 2 mg/L
[33]
  MIC of squalamine: 4 to 8 mg/L
[34]
  antimicrobial activity of squalamine (in words): potent antimicrobial activity against a broad spectrum of microorganisms
[35]
  resistance of S. marcescens to squalamine: known to be resistant to squalamine
